Source: US7731985B2, “4-aminopyrimidines and their use for the antimicrobial treatment of surfaces” (Ciba Specialty Chemicals Corporation, priority 2002, dated 2010)

How the values were obtained:
Assay in all cases: MIC in microtitre plates (Example 10)
Type in all cases: cell-based
Parameters in all cases: unit not given here
Details in all cases: microtitre plate, 48 hours at 37° C., ≦20% growth
[1] = test system: Candida albicans ATCC 10231 (=CA)
Procedure: (§1) Determination of the Minimum Inhibitory Concentration (MIC Value) in Microtitre Plates Casein/soymeal peptone broth for preparation of pre-cultures of test bacteria and yeast Bacteria: • Pseudomonas aeruginosa CIP A-22 (=PA) • Escherichia coli NCTC 8196 (=EC) • Staphylococcus aureus ATCC 9144 (=SA) • Candida albicans ATCC 10231 (=CA) The test substances are pre-dissolved in dimethyl sulfoxide (DMSO) and tested in a dilution series of 1:2. Bacteria and yeast are cultured overnight in CASO broth. All the test organism suspensions are adjusted to an organism count of 1-5×10^6 CFU/ml using […] sodium chloride solution. The test substances are pre-pipetted into microtitre plates in amounts of 8 μl per well. The pre-adjusted organism suspensions are diluted 1:100 in CASO broth and are added in amounts of 192 μl per well to the test substances. The test batches are incubated for 48 hours at 37° C. The incubation, the growth is determined on the basis of the turbidity of the test batches (optical density) at 620 nm in a microplate reader. The minimum inhibitory concentration (MIC value) is the concentration of substance at which (compared to the growth of the control) an appreciable inhibition of growth (≦20% growth) of the test organisms is observed. Three microtitre plates are used for each test organism and substance concentration. All the substances are tested in duplicate.

[2] = test system: Escherichia coli NCTC 8196 (=EC)
Procedure: as §1

[3] = test system: Pseudomonas aeruginosa CIP A-22 (=PA)
Procedure: as §1

[4] = test system: Staphylococcus aureus ATCC 9144 (=SA)
Procedure: as §1

Row | SMILES | MIC CA [1] | MIC EC [2] | MIC PA [3] | MIC SA [4]
1 | CCCCC(CC)CNc1cc(C)nc(C2CC2)n1 (centres unmarked) [compound 137] | 15 | 30 | >120 | 15
2 | FC(F)(F)c1cccc(-c2nc(-c3ccccc3)nc(N3CCNCC3)c2-c2ccccc2)c1 [compound 16] | 15 | 15 | >120 | 7.5
3 | Cc1ccc(-c2nc(-c3ccccc3)nc(NCCOCCOCCN)c2-c2ccccc2)cc1 [compound 13] | 30 | 15 | >120 | 15
4 | Cc1cc(NCc2ccccc2)nc(-c2cccnc2)n1 [compound 45] | 120 | >120 | >120 | 60
5 | CCCCN(C)c1cc(C)nc(C2CC2)n1 [compound 127] | 60 | >120 | >120 | 60
6 | CCCCCCCCCCCCCCNc1cc(C)nc(C2CC2)n1 [compound 80] | 7.5 | 7.5 | >120 | <3.75
7 | CCCCC(CC)CNc1cc(C)nc(-c2csc(C)n2)n1 (centres unmarked) [compound 139] | 30 | 60 | >120 | 7.5
8 | Cc1cc(NC(C)CC(C)C)nc(-c2ccccc2)n1 (centres unmarked) [compound 141] | >120 | >120 | >120 | 120
9 | NCCCCCCCCNc1nc(-c2ccccc2)nc(-c2cccc(C(F)(F)F)c2)c1-c1ccccc1 [compound 20] | 15 | 30 | >120 | 15
10 | CCCCCCNc1cc(C)nc(-c2ccc(N)cc2)n1 [compound 120] | 30 | 120 | >120 | 30
11 | CCCC(C)Nc1cc(C)nc(-c2cccnc2)n1 (centres unmarked) [compound 40] | 120 | >120 | >120 | 60
12 | Cc1cc(N(C)CCO)nc(-c2cccnc2)n1 [compound 55] | >120 | >120 | >120 | 120
13 | CCCCC(CC)CNc1cc(C)nc(C(C)C)n1 (centres unmarked) [compound 138] | 30 | 60 | >120 | 30
14 | CCCCCCCCNc1cc(C)nc(-c2csc(C)n2)n1 [compound 69] | 7.5 | 30 | >120 | <3.75
15 | CCCCCCCCCCCCCCNc1cc(C)nc(-c2ccc(-c3ccccc3)cc2)n1 [compound 71] | 7.5 | 15 | >120 | 7.5
16 | CCCCCCCCCCNc1cc(C)nc(-c2ccc(-c3ccccc3)cc2)n1 [compound 97] | 15 | 15 | >120 | 7.5
17 | COc1ccccc1-c1nc(-c2ccccc2)nc(N2CCC(CCCC3CCNCC3)CC2)c1-c1ccccc1 [compound 28] | >120 | >120 | >120 | <3.75
18 | NCCCCCCCCCCCCNc1nc(-c2ccccc2)nc(-c2ccc(F)cc2)c1-c1ccccc1 [compound 8] | 120 | 30 | >120 | 30
19 | CCCCCCNc1cc(C)nc(-c2ccncc2)n1 [compound 112] | 30 | 120 | >120 | 15

Row | SMILES | MIC CA [1] | MIC EC [2] | MIC PA [3] | MIC SA [4]
20 | CCCCCCCCCCCCNc1cc(C)nc(-c2ccc(C(C)(C)C)cc2)n1 [compound 85] | 7.5 | 7.5 | <120 | 15
21 | CNCCN(C)c1nc(-c2ccccc2)nc(-c2ccc(C)cc2)c1-c1ccccc1 [compound 10] | 30 | 30 | >120 | 15
22 | NCCN1CCN(c2nc(-c3ccccc3)nc(-c3cccc4ccccc34)c2-c2ccccc2)CC1 [compound 3] | 7.5 | 15 | >120 | 7.5
23 | CCCCCCCCCCCCNc1cc(C)nc(C)n1 [compound 89] | <3.75 | <3.75 | >120 | <3.75
24 | CCCCC(CC)CNc1cc(C)nc(-c2ccc(C)c(F)c2)n1 (centres unmarked) [compound 140] | 120 | >120 | >120 | 15
25 | NCCOCCOCCNc1nc(-c2ccccc2)nc(-c2cccc(C(F)(F)F)c2)c1-c1ccccc1 [compound 22] | 7.5 | 15 | >120 | 15
26 | CCCCCCCCCCCCCCNc1cc(C)nc(-c2ccsc2)n1 [compound 74] | <3.75 | 7.5 | >120 | <3.75
27 | CCCCCCNc1cc(C)nc(-c2ccc(C)c(F)c2)n1 [compound 119] | 120 | >120 | >120 | 7.5
28 | Cc1cc(NC(C)CC(C)C)nc(C)n1 (centres unmarked) [compound 143] | 120 | >120 | >120 | >120
29 | CCCCCCCCNc1cc(C)nc(-c2ccc(-c3ccccc3)cc2)n1 [compound 57] | 120 | >120 | >120 | 60
30 | CCN(CC)CCCNc1cc(C)nc(-c2cccnc2)n1 [compound 44] | 120 | >120 | >120 | 120
31 | CCCCCCCCCCNc1cc(C)nc(-c2ccccc2)n1 [compound 99] | 30 | 15 | >120 | 15
32 | CCCCCCNc1cc(C)nc(-c2csc(C)n2)n1 [compound 118] | 15 | 60 | >120 | 7.5
33 | CNCCN(C)c1nc(-c2ccccc2)nc(-c2ccccc2OC)c1-c1ccccc1 [compound 26] | >120 | 60 | >120 | 60
34 | COc1cccc(-c2nc(-c3ccccc3)nc(NCCCN(C)CCCN)c2-c2ccccc2)c1 [compound 24] | 30 | 15 | 30 | 30
35 | CCCCCCNc1cc(C)nc(C2CC2)n1 [compound 116] | 15 | 60 | >120 | 7.5
36 | CCCCCCCCCCCCNc1cc(C)nc(-c2ccc(C)cc2)n1 [compound 91] | 15 | 30 | >120 | 30
37 | CCCCCCCCCCCCNc1cc(C)nc(-c2ccc(C)c(F)c2)n1 [compound 95] | 15 | 30 | >120 | 15
38 | Cc1cc(NCc2ccco2)nc(-c2cccnc2)n1 [compound 51] | >120 | >120 | >120 | 30
